Data on 14 compounds can be found in patent US10167269B2, “Cockroach attraction-aggregation substance, cockroach aggregation attractant and cockroach controlling agent” (Kyoto University, priority 2013, dated 2019).

Molecules are shown by their SMILES.

The first experiment concerns cockroaches. The experiment in a line: biological test using the linear track olfactometer (attraction-aggregation activity). Type of experiment: in vivo, American cockroaches. Particulars: Test Example 1; dose 10^2 pg; EPI=(NS-NC)/(NS+NC). An excerpt: The method for determining the activity of the cockroach attraction-aggregation substance is not particularly limited herein, and the activity may be determined by, for example, a biological test using a linear track olfactometer (FIG. 1).
An olfactometer (linear track olfactometer) is typically an instrument used to conduct bioassays to observe the response of insects to volatiles. The instrument has a bifurcation at which air flow containing an attractant substance attracts the insect subjects (see, e.g., J. Jpn. For. Soc., 89(2), 2007, “An Olfactometer Testing the Olfactory Response of the Japanese Horntail Urocerus japonicus to Volatiles.”, 135-137, and Nogyo Kankyo Kenkyu Sosho, Vol. 17, “Nogyo Seitaikei no Hozen ni Muketa Seibutsu Kino no Katsuyo”, 108-134).
A biological test with a linear track olfactometer will be specifically described below. In FIG. 1, air suction from the top 1 of the central tube allows air to enter from the tops (2a and 2b) of the right and left tubes, thereby air flows are generated from the both sides, flowing through the horizontal tube toward the top of the central tube. The left tube is the control side, and the right tube is the sample side. Insect subjects (7 to 10 day-old larvae) are placed at the bottom 4 of the central tube. Air is then slowly suctioned from the top of the central tube with a pump (2.5 L/min). The insect subjects are allowed to freely move for 5 minutes at 25±1° C. at a relative humidity of 40 to 60% in total darkness. The numbers of the insect subjects that have moved to the control side and to the sample side are counted. The excess proportion index (EPI) is calculated by the following equation: EPI=(NS−NC)/(NS+NC) (where NS is the number of the insect subjects that have moved to the sample side; and NC is the number of the insect subjects that have moved to the control side).
An EPI closer to 1 indicates higher attraction-aggregation activity on cockroaches.
In the examples, the attraction-aggregation activity on cockroaches was determined by a biological test using the above-described linear track olfactometer (FIG. 1).
As for `CCC1Cc2cc(C)c(C)c(O)c2C(=O)O1` (stereo not drawn) [Example 5, 3,4-dihydro-8-hydroxy-3-ethyl-6,7-dimethyl-1H-2-benzopyran-1-one], the EPI value result is given as “about 0.5”.

Staying with this experiment, now noted: Test Example 1; even at a dose of 10^6 pg.
With `CCC1Cc2cc(C)c(C)c(OC)c2C(=O)O1` (stereo not drawn) [Comparative Example 1, reference compound], the “attraction-aggregation activity on cockroaches” value (shortened to “attraction-aggregation activity”) is “no activity”.

Staying with this experiment, now noted: Test Example 5; compounds isolated from frass in Example 24.
In the case of `CCCC(C)C1Cc2c(C)cc(C)c(O)c2C(=O)O1` (stereo not drawn) [PLD-F, 3,4-dihydro-8-hydroxy-3-(1-methylbutyl)-5,7-dimethyl-1H-2-benzopyran-1-one], the “attraction-aggregation activity” value is on record as “high attraction-aggregation activity”.
On to `Cc1ccc2c(c1O)C(=O)O[C@H](C)[C@H]2C` (relative stereo) [PLD-A, (trans)-3,4-dihydro-8-hydroxy-3,4,7-trimethyl-1H-2-benzopyran-1-one], for which the “attraction-aggregation activity” value is “high attraction-aggregation activity”.
As for `CCC(C)C1Cc2c(C)cc(C)c(O)c2C(=O)O1` (stereo not drawn) [PLD-E, 3,4-dihydro-8-hydroxy-3-(1-methylpropyl)-5,7-dimethyl-1H-2-benzopyran-1-one], the “attraction-aggregation activity” value is “high attraction-aggregation activity”.
Turning to `CC[C@@H]1OC(=O)c2c(ccc(C)c2O)[C@@H]1C` (relative stereo) [PLD-D, (cis)-3,4-dihydro-8-hydroxy-4,7-dimethyl-3-ethyl-1H-2-benzopyran-1-one], the “attraction-aggregation activity” value is recorded as “high attraction-aggregation activity”.
On the same count and under the same terms, with `Cc1ccc2c(c1O)C(=O)O[C@@H](C)[C@H]2C` (relative stereo) [PLD-B, (cis)-3,4-dihydro-8-hydroxy-3,4,7-trimethyl-1H-2-benzopyran-1-one] the entry was “high attraction-aggregation activity”; with `CC[C@H]1OC(=O)c2c(ccc(C)c2O)[C@@H]1C` (relative stereo) [PLD-C, (trans)-3,4-dihydro-8-hydroxy-4,7-dimethyl-3-ethyl-1H-2-benzopyran-1-one], “high attraction-aggregation activity”.

The same experiment, now with this note: Test Examples 1 and 4; doses ranging from 10^-3 pg to 10^6 pg; 7 to 10 day-old larvae, 5 minutes.
Consider `CCC1Cc2cc(C)c(C)c(O)c2C(=O)O1` (stereo not drawn) [Example 5, 3,4-dihydro-8-hydroxy-3-ethyl-6,7-dimethyl-1H-2-benzopyran-1-one], for which the “attraction-aggregation activity” value is listed as “high attraction-aggregation activity”.
For the compound `CC1Cc2cccc(O)c2C(=O)O1` (stereo not drawn) [Example 23, mellein], the “attraction-aggregation activity” value is listed as “high attraction-aggregation activity”.
On the same count and under the same terms, for `Cc1ccc2c(c1O)C(=O)OC2` [Example 18, 7-hydroxy-6-methyl-1(3H)-isobenzofuranone] the value was “showed attraction-aggregation activity”.
The same measure, in the same setting: for `Cc1ccc2c(c1O)C(=O)OC1CCCC21` (stereo not drawn) [Example 17, 2,3,3a,9b-tetrahydro-6-hydroxy-7-methyl-cyclopenta[c][2]benzopyran-5(1H)-one] the value was “showed attraction-aggregation activity”.

Still in this experiment, the particulars now being: Test Examples 2 and 3; doses ranging from 10^-3 pg to 10^3 pg.
With `CCC1Cc2ccc(C)c(O)c2C(=O)O1` (stereo not drawn) [Example 3, 3,4-dihydro-8-hydroxy-3-ethyl-7-methyl-1H-2-benzopyran-1-one], the “attraction-aggregation activity” value is listed as “high attraction-aggregation activity”.
For the compound `Cc1ccc2c(c1O)C(=O)OC(C)C2` (stereo not drawn) [step 1-4 of Example 1, 3,4-dihydro-8-hydroxy-3,7-dimethyl-1H-2-benzopyran-1-one], the “attraction-aggregation activity” value is given as “high attraction-aggregation activity”.
On the same count and under the same terms, with `CCC1Cc2c(C)cc(C)c(O)c2C(=O)O1` (stereo not drawn) [Example 4, 3,4-dihydro-8-hydroxy-3-ethyl-5,7-dimethyl-1H-2-benzopyran-1-one] the entry was “high attraction-aggregation activity”.
